Like-named read-outs stand apart in the source and are kept apart here.

For one assay, the target named is T1, bovine erythrocyte GPx (Bos taurus, UniProt P00435).
T1 construct: 180 μL of a bovine erythrocyte GPx1 solution (0.125 U/mL); purchased Sigma Aldrich (Taufkirchen, Germany); host or cells: bovine erythrocytes
T1 sequence (P00435 1-205): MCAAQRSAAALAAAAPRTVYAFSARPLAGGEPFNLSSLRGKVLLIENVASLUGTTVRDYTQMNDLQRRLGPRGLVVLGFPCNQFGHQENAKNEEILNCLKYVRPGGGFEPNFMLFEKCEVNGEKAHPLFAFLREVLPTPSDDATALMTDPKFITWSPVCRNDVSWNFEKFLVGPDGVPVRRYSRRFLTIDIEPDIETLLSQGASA
Nature of the assay: GPx enzyme activity assay (TBHP/GSH, GR/NADPH coupled). The conditions noted are these: 23 °C; n>3; 0.25 mM GSH; read-out: Enzyme inhibition IC50 (CI 95 %). In kind it is biochemical. The protocol:
The ability of pentathiepins to inhibit the bovine erythrocyte GPx activity was assayed for by an established enzyme method, which is based on the GPx‐dependent reduction of tert‐butyl hydroperoxide (TBHP) by GSH, leading to the formation of GSSG, which is coupled to the reduction of GSSG back to GSH by glutathione reductase (GR) and the oxidation of NADPH to NADP^+[10] (Figure 1). Inhibition potencies of the compounds were ranked by their IC50 values; that is, concentration of the inhibitor at the inflection point in the sigmoidal log dose‐inhibition curve (Figure 4A), and are summarized for the pentathiepins and mercaptosuccinic acid (MSA) in Table 1.
GPx enzyme activity assay: To evaluate if the various compounds could inhibit GPx1, an enzymatic assay monitoring the activity of the bovine erythrocyte GPx was used as described previously.33 Bovine erythrocyte GPx is highly homologous to the human GPx1 (homology of 87 %)34 but much more affordable. In this assay, GPx reduces tert‐butylhydroperoxide (TBHP) followed by oxidation of glutathione (GSH) to the disulfide (GSSG), which in turn is regenerated to GSH by glutathione reductase (GR) with the consumption of NADPH. To each well of a UV‐transparent 96‐well plate were added 180 μL of a bovine erythrocyte GPx1 solution (0.125 U/mL) and 30 μL of prospective inhibitor in different concentrations diluted in DMF and incubated under shaking for 15 min at room temperature. Then 30 μL of stock solutions of GSH (2.5 mM) and baker's yeast GR plus NADPH (2 U/mL; 2.0 mM) were added. All stock solutions were prepared in potassium phosphate buffer (50 mM, pH 7.4, EDTA 1.1 mM, Triton‐X 0.01 %). The reaction was started by addition of TBHP solution (5 mM), giving final concentrations of 0.075 U/mL bovine erythrocyte GPx, 0.2 U/mL GR, 0.25 mM GSH, 0.2 mM NADPH and prospective inhibitor concentrations between 0.2–100 μM. The reaction was followed by the rate of decreasing absorption of the NADPH at λ=340 nm, measured every 15 s for ca. 20 min. The GPx activity related to untreated control was imported into the GraphPad Prism 6.0 software and the IC50 values were calculated by estimating the inflection point of the sigmoidal log concentration‐activity curves.

In assay [1] the test system is SISO cells. Nature of the assay: Alkaline comet assay. The conditions noted are these: 15 min at 0 °C. In kind it is cell-based, human. The protocol:
(§1) To assess the induction of DNA strand breaks by pentathiepin 4 the Comet Assay was used. The SISO and HAP‐1 cell lines were treated with either 1 % DMF (solvent control), 20 μM H2O2 (positive control) or 25 μM 4 for 15 min at 0 °C. The DNA in the comet head corresponds to still intact genomic DNA while the tail forms due to the damage of nuclear DNA (Figure 9B). […] For HAP‐1 cells a greater reduction of intact DNA from 86 % in control cells to 66 % in pentathiepin‐incubated cells was observed.
(§2) Alkaline comet assay to assess induction of DNA strand breaks: The method was adapted from Olive and Banath.40 The alkaline protocol allows for the detection of single and double strand breaks as well as alkali‐labile sites and is based on the different electrophoretic mobility of intact and damaged nuclear DNA. […] The induction of strand breaks creates free charged ends that drift out and form the characteristic comet tail. The percentage of DNA that is located in the comet head was selected as descriptor, which corresponds to the amount of still intact genomic DNA.
(§3) Briefly, SISO and HAP‐1 cells were harvested by trypsinization and a single cell suspension with 50 000 cells per mL PBS was prepared. Per condition 50 000 cells were incubated on ice (to impair DNA repair) with either the solvent control DMF (1.0 %), 20 μM H2O2 or 25 μM 4 for 15 min. Afterwards, 400 μL of the cell suspension were mixed with 1.2 mL 1 % low melting point agarose (Carl Roth, Germany) at 40 °C and evenly distributed on agarose‐precoated (GeneOn, Germany) glass slides (Thermo Fisher). After 3 min polymerization the slides were horizontally submerged in lysis buffer (1.2 M NaCl (Carl Roth, Germany), 0.1 % N‐Lauryl‐Sarcosinate (Merck), 0.1 M Na‐EDTA, 0.26 M NaOH) and placed at 4 °C overnight. Before electrophoresis at 0.6 V/cm for 25 min the slides were rinsed three times in rinse/electrophoresis buffer (0.002 M Na‐EDTA, 0.03 M NaOH). Afterwards, the slides were neutralized in distilled water and subsequently stained with 250 μL of a 10 μg/mL PI in water solution for 20 min. Finally, the slides were analyzed with a Leica DMi8 fluorescent microscope and LASX software (Leica, Germany) and comets were scored with CometScore 2.0 (Rex A. Hoover, www.rexhoover.com). At least 100 comets were scored per condition.

The test system of assay [2] is SISO human cervix cancer cell line. Nature of the assay: Crystal violet proliferation assay. Format: cell-based. The conditions noted are these: 37 °C, 96 h, n>4, read-out: Inhibition of cell viability GI50 (CI 95 %). The protocol:
GI50 values for 50 % growth inhibition were all in a low micro molar range (Table 1). […] The indole−pentathiepins gave lower GI50 values than the pyrrolo[1,2‐a]quinoxaline derivatives. […] There was also a trend showing that an electron rich substituent in position R^2 increased the antiproliferative effect in SISO cells.
Crystal violet proliferation assay: To measure cell growth inhibition, the crystal violet assay was carried out as previously described.37 Adherent cell lines were seeded out in a 96‐well plate (1000 cells per 200 μL culture medium) and allowed to attach for 24 h. Cells were exposed to nine serial dilutions of compound, added to the medium from 1000‐fold concentrated stock solutions in DMF. For the controls, cells were exposed to 0.1 % DMF alone. After addition of compounds, plates for the detection of the starting point of the proliferation at incubation time zero (t 0) were stopped with glutaraldehyde (see below), washed with Dulbecco's buffer (containing KCl 0.2 g/L, MgSO4 ⋅ 7 H2O 0.1 g/L, Na2HPO4 ⋅ >7 H2O 1.55 g/L, KH2HPO4 0.2 g/L and NaCl 8 g/L in water) and stored at 4 °C until the staining procedure. Treated cells were incubated for 96 h in the incubator, the medium was removed and replaced with 100 μL of 1 % glutaraldehyde in Dulbecco's buffer for 20 min. After washing twice with 150 μL of Dulbecco's buffer, the buffer was removed and replaced with 100 μL of a 0.02 % crystal violet solution dissolved in water for 30 min and subsequently washed in tap water for 15 min. Water was removed and replaced with 100 μL of ethanol (70 % in water) followed by shaking on a 96‐well shaker (MS3 digital, IKA‐Werke, Germany) for 2 h. Optical density was measured with a SpectraMax Plus 383 microtiter plate reader at λ=570 nm (Molecular Devices, USA). The optical density of t 0 plates at the time of treatment were subtracted from optical densities of plates with treated cells after 96 h (T), and the growth inhibition relative to untreated, control cells (C) as described.22 Growth inhibition concentrations at 50 % (GI50) were calculated by determining the inflection point of the sigmoidal log dose‐growth inhibition (%T/C) curves with the GraphPad Prism 6.0 software.

The test system of another assay is HAP-1 cells. Nature of the assay: Alkaline comet assay. In kind it is cell-based, human. To be noted: 20 μM positive control, 15 min at 0 °C. The protocol: as §1, §2, §3
A further assay deals with T2, bovine GPx1 (Bos taurus, UniProt P00435).
T2 construct: 180 μL of a bovine erythrocyte GPx1 solution (0.125 U/mL); purchased Sigma Aldrich (Taufkirchen, Germany); host or cells: bovine erythrocytes
T2 sequence (P00435 1-205): T1 sequence (P00435 1-205)
Nature of the assay: Jump-dilution experiments for reversibility of GPx1 inhibition. Format: biochemical. The conditions noted are these: 30 min pre-incubation at 23 °C, 100-fold jump-dilution. How it is done: No difference in the inhibitory activity of 4 after jump‐dilution (Figure 4B left, a) was observed compared to expected inhibition at 0.25 μM (Figure 4B left, 0.25 μM), evidence that GPx1 inhibition is reversible. […] This is consistent with findings that MSA can act as an irreversible inhibitor of GPx1.11 In further jump‐dilution experiments, we pre‐incubated both inhibitors with the assay concentrations of either GSH and TBHP (a, d) or GSH only (b, e), with (a–c) and without (d–f) GPx1 for 30 min.
The jump‐dilution experiments were carried out in a 96‐well plates at room temperature. To each well was added 75 μL of a 20 IU mL^−1 GPx stock‐solution followed by the addition of 3 μL of a 2.5 mM solution of 4 in DMF and 30 μL of a 2.5 mM solution of GSH in buffer or 30 μL of a 2.5 mM solution of GSH in buffer and 30 μL of a 5 mM solution of TBHP in water and 300 μL buffer. The plates were shaken for 30 min in the dark, then each well was diluted 100 fold into a second plate prepared for the GPx‐assay. The enzyme activity was immediately measured as described above.

The subject of another assay is human GPx. Nature of the assay: GPx activity assay with human cancer cell lysates (SISO). The conditions noted are these: inhibitor at its IC50 for bovine GPx, 0.5 mM GSH. In kind it is biochemical. The protocol: To investigate whether the pentathiepins have an inhibitory effect on human GPx, cell lysates of the human cervix cancer cell line SISO, which expresses high levels of GPx1 (see below), were incubated with either 4 or MSA in concentrations of the IC50 value for the inhibitory effect on bovine GPx1.
To measure the inhibition of human GPx activity, the enzyme assay was adapted to use human cancer cell lysates in place of the bovine enzyme. A quantity of 100 μg cellular protein (determined according to the Bradford method) per well was used. Due to the large consumption of cell lysates, just the inhibitory effect on GPx at one concentration of pentathiepin was determined in primary screening. The concentration of GSH was raised to a concentration of 0.5 mM to increase the velocity of the reaction, all other conditions were unchanged. The rates of NADPH oxidation were normalized to the solvent control. […] We used 100 μg protein of lysates and added GSH up to final concentrations between 0.375–3 mM. The rates of the GPx activity were calculated by nonlinear regression and the fitted with the GraphPad Prism 6.0 software: “Enzyme kinetics – Substrate vs. Velocity (Michaelis‐Menten)”.

In assay [3] the test system is SISO cells. Nature of the assay: Fluorescence microscopy for lipid peroxidation (BODIPY 581/591). Format: cell-based, human. The conditions noted are these: 100 μM positive control, 24 h. The protocol:
In another set of experiments, LPO was visualized by fluorescence microscopy with a dye for lipid peroxides, BODIPY 581/591. […] Together, our results point to apoptosis and not ferroptosis as the mechanism of cell death induced by 4.
Fluorescence microscopy for the detection of lipid peroxidation: SISO cells (250 000 cells) were seeded out in 6‐well plates with an inserted coverslip. Cells were allow to attach for 24 h and then exposed to 25 μM 4 or 100 μM tert‐butyl‐hydroperoxide as a positive control. After 24 h coverslips were washed with PBS and stained with 1 μM BODIPY 581/591 in culture medium for 30 min. Cells on the coverslips were then mounted and examined with a Leica DMi8 fluorescence microscope at λ ex/em=460–500/512–542 nm for the oxidized BODIPY 581/591 and λ ex/em=540–581/592–668 for the reduced form.

For orientation: IC50 means the point on the concentration scale where inhibition reaches its midpoint. For `CCOc1c2c(c3cnc4ccccc4n13)SSSSS2` [Compound 1], the IC50 at bovine erythrocyte GPx was found to be 1760 nM.
On the same count and under the same terms, with `CCOc1c2c(c3cnc4cc(C)ccc4n13)SSSSS2` [Compound 2, 12‐Ethoxy‐3‐methyl‐[1,2,3,4,5]pentathiepino[6′,7′ : 3,4]pyrrolo[1,2‐a]quinoxaline] the figure was 520 nM.
The same measure, in the same setting: with `CCOc1c2c(c3c(C(F)(F)F)nc4cc(C)ccc4n13)SSSSS2` [Compound 3, 12‐Ethoxy‐3‐methyl‐6‐(trifluoromethyl)‐[1,2,3,4,5]pentathiepino[6′,7′ : 3,4]pyrrolo[1,2‐a]quinoxaline] the figure was 470 nM.
For the compound `CCOc1c2c(c3c(C(F)(F)F)nc4cc(C)c(C)cc4n13)SSSSS2` [Compound 5, 12‐Ethoxy‐2,3‐dimethyl‐6‐(trifluoromethyl)‐[1,2,3,4,5]pentathiepino[6′,7′ : 3,4]pyrrolo[1,2‐a]quinoxaline], the IC50 at bovine erythrocyte GPx came out at 1860 nM. Besides, in the assay on SISO cells [1] (25 μM), the “percentage of undamaged (intact) DNA in comet head” value was found to be 80%.
By GI50 is commonly meant the concentration at which growth is held to half of that of the control. Regarding `Cn1c2c(c3ccccc31)SSSSS2` [Compound 6, 6‐Methyl‐6H‐[1,2,3,4,5]pentathiepino[6,7‐b]indole], the IC50 at bovine erythrocyte GPx was 950 nM. Also, the GI50 in assay [2] (Homo sapiens) is 3500 nM.
On the same counts, the results for `CCn1c2c(c3cc(Cl)ccc31)SSSSS2` [Compound 7, 9‐Chloro‐6‐ethyl‐6H‐[1,2,3,4,5]pentathiepino[6,7‐b]indole] are 400 nM and 1500 nM.
Taken in the same sequence, the figures for `c1ccc(Cn2c3c(c4ccccc42)SSSSS3)cc1` [Compound 8, 6‐Benzyl‐6H‐[1,2,3,4,5]pentathiepino[6,7‐b]indole] were 830 nM and 1400 nM.
On to `OO` [Compound H2O2, hydrogen peroxide, reference compound], for which the “intact DNA in comet head” value with HAP-1 cells and with SISO cells [1] (20 μM positive control) was “significant decreases of intact DNA” each time.
Turning to `O=C(O)CC(S)C(=O)O` (stereo not drawn) [MSA, mercaptosuccinic acid, reference compound], on bovine erythrocyte GPx, the IC50 was 5860 nM. Moreover, the “reversibility of GPx1 inhibition” value at bovine GPx1 was “some irreversible inhibition had occurred”. For the same compound, the “inhibition of GPx activity” value in the assay with human GPx amounted to 60%. Further, the concentration for 50% growth inhibition (GI50) in assay [2] turned out to be 57100 nM.
Consider `CC(C)(C)OO` [tBuOOH, reference compound], for which, in the assay on SISO cells [3], the “lipid peroxidation (LPO)” value is recorded as “showed LPO”.
